Where two headings read alike, the source gives them in different places.
Tests used:
Type in all cases: in vivo
[1] = system: Erysiphe graminis tritici (powdery mildew); assay: Test 1 greenhouse foliar spray screen, powdery mildew on wheat; details: disease control rating, foliar spray on wheat, 400 ppm (+++ at 100 ppm)
[2] = system: Pyricularia oryzae (rice blast); assay: whole plant or invertebrate; details: disease control rating, foliar spray on rice, 400 ppm (+++ at 100 ppm)
[3] = system: Puccinia recondita tritici (leaf rust); assay: Test 1 greenhouse foliar spray screen, leaf rust on wheat; details: disease control rating, foliar spray on wheat, 400 ppm (+++ at 100 ppm)
[4] = system: Botrytis cinerea (gray mold); assay: Test 1 greenhouse foliar spray screen, gray mold on grape berries; details: disease control rating, spray on grape berries, 400 ppm (+++ at 100 ppm)
[5] = system: Pseudoperonospora cubensis (downy mildew); assay: Test 1 greenhouse foliar spray screen, downy mildew on squash; details: for DOWN MDEW: disease control rating, foliar spray on squash, 400 ppm (+++ at 100 ppm)
[6] = system: Cercospora beticola (leaf spot); assay: Test 1 greenhouse foliar spray screen, leaf spot on sugar beet; details: disease control rating, foliar spray on sugar beet, 400 ppm (+++ at 100 ppm)
[7] = system: Venturia inaequalis (apple scab); assay: Test 1 greenhouse foliar spray screen, apple scab on apple seedling; details: disease control rating, foliar spray on apple seedling, 400 ppm (+++ at 100 ppm)
[8] = system: Septoria tritici (leaf blotch); assay: Test 1 greenhouse foliar spray screen, leaf blotch on wheat; details: disease control rating, foliar spray on wheat, 400 ppm (+++ at 100 ppm)
[9] = system: southern armyworm (Spodopetra eridania Cramer); assay: Mite/insect screen, SAW; details: percent mortality; for mortality at 200 ppm: Spodoptera eridania, read-out: SAW RESULTS %
In short: (§1)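 Compounds dissolved in acetone/alcohol (50:50) with TOXIMUL R and S emulsifiers, diluted in water to test concentrations, and sprayed to runoff on both leaf surfaces at 10 psi, then dried 1 h. For armyworm, excised treated leaves were offered to larvae; percent mortality scored after standard exposure periods.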

[10] = system: Twospotted spider mites (Tetranychus urticae Koch); assay: Mite/insect screen, SM; details: percent mortality; for mortality at 200 ppm: Tetranychus urticae, read-out: SM RESULTS %
In short: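 Compounds dissolved in 50:50 acetone/alcohol containing sulfonate/nonionic emulsifier blends, then diluted with water to the indicated concentrations. Leaves sprayed on both surfaces to runoff at 10 psi and dried one hour. Percent mortality scored after standard exposure periods.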

[11] = system: melon aphids (Aphis gossypii Glover); assay: Mite/insect screen, MA; details: percent mortality; for mortality at 200 ppm: Aphis gossypii, read-out: MA RESULTS %
In short: as §1

corn rootworm = assay: Mite/insect screen, CRW; details: percent mortality; for mortality at 12 ppm: read-out: CRW RESULTS %
In short: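 Compounds dissolved in 50:50 acetone/alcohol with TOXIMUL R and S emulsifiers (23 and 13 g/L), then diluted in water to the stated test concentrations. Percent mortality of corn rootworm scored after standard exposure periods.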

[12] = foliar, rate 200 ppm, foliar spray on squash

SMILES	POWD MDEW [1]	RICE BLAST [2]	LEAF RUST [3]	GRAY MOLD [4]	DOWN MDEW [5]	LEAF SPOT [6]	APPL SCAB [7]	LEAF BLOT [8]	mortality at 200 ppm ([9]; SAW, SM & MA RATE 200 PPM)	mortality at 200 ppm ([10]; SAW, SM & MA RATE 200 PPM)	mortality at 200 ppm ([11]; SAW, SM & MA RATE 200 PPM)	mortality at 12 ppm (corn rootworm; CRW RATE 12.00 PPM)	SM RESULTS % ([10]; SAW, SM & MA RATE 200 PPM)	MA RESULTS % ([11]; SAW, SM & MA RATE 200 PPM)	further results
Fc1cc(F)c2nccc(NCCc3ccccc3)c2c1 [Example 7, 6,8-difluoro-N-(2-phenylethyl)-4-quinolinamine]	+ (20-89% control at 400 ppm)	+ (20-89% control at 400 ppm)	+++ (90-100% control at 100 ppm)	- (0-19% control at 400 ppm)	+++ (90-100% control at 100 ppm)	- (0-19% control at 400 ppm)	- (0-19% control at 400 ppm)	+++ (90-100% control at 100 ppm)	0%	0%	0%	0%	–	–	–
Fc1ccc2c(NCCc3ccccc3)ccnc2c1 [Example 8, 7-fluoro-N-(2-phenylethyl)-4-quinolinamine]	+ (20-89% control at 400 ppm)	++ (90-100% control at 400 ppm)	+ (20-89% control at 400 ppm)	- (0-19% control at 400 ppm)	+++ (90-100% control at 100 ppm)	+++ (90-100% control at 100 ppm)	- (0-19% control at 400 ppm)	+ (20-89% control at 400 ppm)	100%	0%	0%	0%	–	–	–
Fc1ccc2nccc(NCCc3ccccc3)c2c1 [Example 9, 6-fluoro-N-(2-phenylethyl)-4-quinolinamine]	+ (20-89% control at 400 ppm)	+ (20-89% control at 400 ppm)	+ (20-89% control at 400 ppm)	- (0-19% control at 400 ppm)	+++ (90-100% control at 100 ppm)	- (0-19% control at 400 ppm)	- (0-19% control at 400 ppm)	- (0-19% control at 400 ppm)	0%	0%	0%	0%	–	–	–
Clc1cccc2c(NCCc3ccccc3)ccnc12 [Example 33, 8-chloro-N-(2-phenylethyl)-4-quinolinamine]	- (0-19% control at 400 ppm)	+ (20-89% control at 400 ppm)	+ (20-89% control at 400 ppm)	- (0-19% control at 400 ppm)	+++ (90-100% control at 100 ppm)	–	- (0-19% control at 400 ppm)	- (0-19% control at 400 ppm)	0%	0%	0%	0%	–	–	activity against downy mildew ([5]; summary statement in the description): particularly excellent activity
Cc1ccc(CCNc2ccnc3c(F)cccc23)cc1 [Example 71, 8-fluoro-N-[2-(4-methylphenyl)ethyl]-4-quinolinamine]	+ (20-89% control at 400 ppm)	+ (20-89% control at 400 ppm)	+++ (90-100% control at 100 ppm)	- (0-19% control at 400 ppm)	+++ (90-100% control at 100 ppm)	+++ (90-100% control at 100 ppm)	- (0-19% control at 400 ppm)	+ (20-89% control at 400 ppm)	0%	0%	0%	–	0%	0%	SAW RESULTS % ([9]; SAW, SM & MA RATE 200 PPM): 0%
Fc1cccc2c(NCCc3cccc(Cl)c3)ccnc12 [Example 74, N-[2-(3-chlorophenyl)ethyl]-8-fluoro-4-quinolinamine]	+ (20-89% control at 400 ppm)	+ (20-89% control at 400 ppm)	+++ (90-100% control at 100 ppm)	- (0-19% control at 400 ppm)	+++ (90-100% control at 100 ppm)	+++ (90-100% control at 100 ppm)	- (0-19% control at 400 ppm)	- (0-19% control at 400 ppm)	–	0%	0%	0%	0%	0%	CRW RESULTS % (corn rootworm; CRW RATE 12.00 PPM): 0%
CC(CNc1ccnc2c(F)cccc12)c1ccc(Cl)cc1 (centres unmarked) [Example 79, N-[2-(4-chlorophenyl)propyl]-8-fluoro-4-quinolinamine]	+ (20-89% control at 400 ppm)	++ (90-100% control at 400 ppm)	++ (90-100% control at 400 ppm)	- (0-19% control at 400 ppm)	+++ (90-100% control at 100 ppm)	+++ (90-100% control at 100 ppm)	- (0-19% control at 400 ppm)	+ (20-89% control at 400 ppm)	–	0%	0%	0%	0%	0%	CRW RESULTS % (corn rootworm; CRW RATE 12.00 PPM): 0%
c1ccc(CCNc2cc(NCCc3ccccc3)c3ccccc3n2)cc1 [Example 181, N,N'-bis(2-phenylethyl)-2,4-quinolinediamine]	+ (20-89% control at 400 ppm)	+ (20-89% control at 400 ppm)	+ (20-89% control at 400 ppm)	- (0-19% control at 400 ppm)	+++ (90-100% control at 100 ppm)	–	- (0-19% control at 400 ppm)	- (0-19% control at 400 ppm)	–	–	–	–	–	–	mortality at 200 ppm [9, 12]: 0%; mortality at 200 ppm [10, 12]: 0%; mortality at 200 ppm [11, 12]: 0%; mortality at 12 ppm (corn rootworm; CRW rate 12.00 ppm): 0%

— patent EP0326331B1, “Substituted quinolines and cinnolines” (Dow AgroSciences LLC, priority 1988, dated 1989)
